Series [1] has as its target T1, P-gp (Cricetulus griseus, UniProt P21448).
T1 construct: endogenous in cells; host or cells: Chinese hamster ovary CR1R12 cells (colchicine-selected; parental AUXB1)
Briefly: Calcein-AM transport assay in P-gp-overexpressing CR1R12 cells. As to conditions: calcein-AM 0.25 µM, room temperature, read-out: IC50 inhibition of calcein-AM export. In kind it is cell-based, Chinese hamster. The protocol: It has commonly been used in fluorescence-based transport assays for P-gp in whole-cell systems (Al-Shawi & Senior, 1993[▶]). Chinese hamster ovary CR1R12 cells were cultured in the presence of 5 µg ml^−1 colchicine to maintain P-gp overexpression. In general, ∼5 × 10^5 CR1R12 cells per well were pretreated with test compounds in serially increasing concentrations at room temperature for 15 min; calcein-AM (0.25 µM) was then added and incubated for an additional 15 min at room temperature while monitoring the fluorescence intensity (excitation at 485 nm, emission at 535 nm). 100% was the maximum fluorescence achieved by full inhibition of P-gp in CR1R12 cells. The means and standard deviations were obtained from quadruplet experiments.

Series [2] concerns the target T2, P-gp (Mus musculus, UniProt P21447).
T2 construct: inferred from the Ni-NTA purification; made in house; host or cells: Pichia pastoris
Briefly: Stimulation of basal ATPase activity of purified P-gp. The series is classed as biochemical. As to conditions: 310 K. The procedure:
The ATPase activity of P-gp was measured at 310 K using the ATP-regenerating system described by Vogel & Steinhart (1976[▶]) as modified by Urbatsch et al. (1995[▶]). Briefly, 1 µg P-gp was added to 100 µl 50 mM Tris–HCl pH 7.5 buffer containing 10 mM ATP, 12 mM MgCl2, 6 mM phosphoenolpyruvate, 1 mM NADH, 10 units of lactate dehydrogenase, 10 units of pyruvate kinase and test compounds over a range of concentrations. ATP hydrolysis was determined by the decrease in NADH absorbance at OD340 using a Filtermax F5 Multiplate Spectrophotometer. The ATPase activity was calculated using the equation ΔOD/(∊ × [protein] × time), where ΔOD is the change in absorbance and ∊ is the extinction coefficient of NADH. The concentration of purified P-gp was estimated by comparing the SDS–PAGE intensity of Coomassie-stained protein bands with known amounts of BSA. EC50 values were calculated using GraphPad Prism (GraphPad Software, San Diego, California, USA) using nonlinear regression (curve fit) from the entire concentration range.
Gene-optimized mouse P-gp (ABCB1a; GenBank JF834158) was expressed in Pichia pastoris in 10 l cultures in a BioFlo 415 bioreactor (New Brunswick Scientific) and was induced by the slow addition of methanol (3.6 ml per hour per litre of culture volume) overnight as described previously (Aller et al., 2009[▶]; Bai et al., 2011[▶]). […]

The subject of a further series is CR1R12 cells. Briefly: Sensitization assay: growth of CR1R12 cells with colchicine (sulforhodamine B). The series is classed as cell-based, Chinese hamster. The procedure: (§1) CR1R12 cells were grown in the presence of increasing concentrations of colchicine for 3 d at given concentrations of test compounds. Cell densities were determined using the sulforhodamine B colorimetric assay (Vichai & Kirtikara, 2006[▶]). 100% is defined as the growth in the absence of colchicine. Parental AUXB1 cells were included as controls. […]
(§2) Figure S4 Sensitization of CR1R12 cells to the anti-cancer drug colchicine by homotrimeric cyclopeptides. Relative to parental control AUXB1 cells, P-gp-overexpressing CR1R12 cells are ~200 times more resistant to the anticancer drug colchicine (gray lines in all panes). Their 50% growth […]
(§3) Presence of (a) QZ-Ala, green, (b)
(§4) QZ-Val, blue, and (d) QZ-Phe, red, in the growth media sensitized the CR1R12 cells to colchicine in a concentration-dependent manner with full reversal of P-gp mediated multidrug resistance seen at 2 […]
(§5) increasing concentrations of (c) QZ-Leu, yellow, also sensitized CR1R12 cells to colchicine, where […]
(§6) higher concentrations. Shown are representative data from three independent experiments. The concentrations are plotted in log scale.

The test system of series [3] is P-gp-over-expressing CR1R12, and parental control AuxB1, cells. Briefly: Cytotoxicity of the cyclopeptides to CR1R12 and parental AuxB1 cells (Fig. S3). The series is classed as cell-based, Chinese hamster. The procedure:
Figure S1 NMR spectra of QZ-Ala, QZ-Leu and QZ-Phe. 13C (top) and 1H (bottom) spectra are […]
Figure S2 Structure based alignment. Two views of P-gp depicting Cα position shifts between the new (P-gp native at 3.4 Å, reported here) and previously published model (pdb code: 4KSB). Changes are depicted by color with red indicating the largest shift in Cα position (8.35 Å). Alignments and pairwise Cα RMSD calculations were calculated using the python module ‘ColorByRMSD’ within the PyMOL Molecular Graphics System (Schrödinger, LLC)
Figure S3 Cytotoxicity of the homotrimeric cyclopeptide compounds to P -gp-over-expressing CR1R12, and parental control AuxB1, cells using Calcein-AM transport assay. P-gp mediates mild […]
of this compound at high concentrations. The mean and SD of quadruplet experiments are shown; data were fit using the Hill equation. QZ-Ala, QZ-Val, QZ-Leu and QZ-Phe are drawn in green, blue, yellow and red curves, respectively. The concentrations are plotted in log scale.
as §2
Presence of (a) QZ-Ala, green, (b) […]

Series [4] in a line: Solubility remark (Fig. S3 legend). In kind it is physicochemical. As to conditions: at high concentrations.
A further series deals with AUXB1 cells. The experiment in a line: Growth inhibition of parental control AUXB1 cells by colchicine. In kind it is cell-based, Chinese hamster. Conditions: Cricetulus griseus, read-out: 50% growth inhibition (GI50). The protocol:
as §1, §2, §3, §4, §5, §6

The source of these data is article PMC4356375, “Snapshots of ligand entry, malleable binding and induced helical movement in P-glycoprotein” (Acta Crystallographica Section D: Biological Crystallography, 2015).

A word on the IC50: it is the midpoint of a concentration-inhibition curve. By EC50 is commonly meant the concentration needed to bring the measured effect to its halfway point. Read a high EC50 as a less potent agent. Broadly, the GI50 is the concentration that inhibits growth by half.

T1 sequence (P21448 whole entry): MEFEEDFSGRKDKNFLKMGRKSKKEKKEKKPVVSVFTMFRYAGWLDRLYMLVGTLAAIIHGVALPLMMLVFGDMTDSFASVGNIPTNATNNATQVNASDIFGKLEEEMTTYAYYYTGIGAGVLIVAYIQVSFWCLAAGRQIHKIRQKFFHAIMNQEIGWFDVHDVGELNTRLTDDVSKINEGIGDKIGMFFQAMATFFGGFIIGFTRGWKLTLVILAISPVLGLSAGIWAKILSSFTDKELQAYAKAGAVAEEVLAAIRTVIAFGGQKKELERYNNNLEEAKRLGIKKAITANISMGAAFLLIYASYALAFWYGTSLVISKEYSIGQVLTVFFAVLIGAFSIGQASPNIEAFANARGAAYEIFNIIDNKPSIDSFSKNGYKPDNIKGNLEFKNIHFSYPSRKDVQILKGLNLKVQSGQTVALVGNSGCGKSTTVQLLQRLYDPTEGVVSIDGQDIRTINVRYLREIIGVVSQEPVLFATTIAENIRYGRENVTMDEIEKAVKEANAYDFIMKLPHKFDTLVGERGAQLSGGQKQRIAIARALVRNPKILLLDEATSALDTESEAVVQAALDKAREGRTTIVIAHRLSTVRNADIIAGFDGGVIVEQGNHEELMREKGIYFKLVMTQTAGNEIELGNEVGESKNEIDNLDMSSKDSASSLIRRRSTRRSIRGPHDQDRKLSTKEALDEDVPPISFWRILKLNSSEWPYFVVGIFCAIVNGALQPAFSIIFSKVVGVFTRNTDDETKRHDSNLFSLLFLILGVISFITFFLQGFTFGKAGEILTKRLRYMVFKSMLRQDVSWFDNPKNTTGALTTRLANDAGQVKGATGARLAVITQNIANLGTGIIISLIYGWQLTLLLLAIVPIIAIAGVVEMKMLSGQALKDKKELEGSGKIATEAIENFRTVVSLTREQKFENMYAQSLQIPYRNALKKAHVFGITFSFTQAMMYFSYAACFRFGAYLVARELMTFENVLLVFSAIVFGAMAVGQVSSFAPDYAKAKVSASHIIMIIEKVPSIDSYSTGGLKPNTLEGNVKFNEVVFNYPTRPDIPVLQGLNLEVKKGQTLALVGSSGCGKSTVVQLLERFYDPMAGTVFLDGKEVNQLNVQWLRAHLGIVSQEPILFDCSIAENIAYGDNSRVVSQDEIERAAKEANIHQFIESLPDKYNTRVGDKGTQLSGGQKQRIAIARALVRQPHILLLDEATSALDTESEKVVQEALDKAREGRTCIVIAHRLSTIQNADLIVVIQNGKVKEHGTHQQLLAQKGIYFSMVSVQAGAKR
T2 sequence (P21447 whole entry): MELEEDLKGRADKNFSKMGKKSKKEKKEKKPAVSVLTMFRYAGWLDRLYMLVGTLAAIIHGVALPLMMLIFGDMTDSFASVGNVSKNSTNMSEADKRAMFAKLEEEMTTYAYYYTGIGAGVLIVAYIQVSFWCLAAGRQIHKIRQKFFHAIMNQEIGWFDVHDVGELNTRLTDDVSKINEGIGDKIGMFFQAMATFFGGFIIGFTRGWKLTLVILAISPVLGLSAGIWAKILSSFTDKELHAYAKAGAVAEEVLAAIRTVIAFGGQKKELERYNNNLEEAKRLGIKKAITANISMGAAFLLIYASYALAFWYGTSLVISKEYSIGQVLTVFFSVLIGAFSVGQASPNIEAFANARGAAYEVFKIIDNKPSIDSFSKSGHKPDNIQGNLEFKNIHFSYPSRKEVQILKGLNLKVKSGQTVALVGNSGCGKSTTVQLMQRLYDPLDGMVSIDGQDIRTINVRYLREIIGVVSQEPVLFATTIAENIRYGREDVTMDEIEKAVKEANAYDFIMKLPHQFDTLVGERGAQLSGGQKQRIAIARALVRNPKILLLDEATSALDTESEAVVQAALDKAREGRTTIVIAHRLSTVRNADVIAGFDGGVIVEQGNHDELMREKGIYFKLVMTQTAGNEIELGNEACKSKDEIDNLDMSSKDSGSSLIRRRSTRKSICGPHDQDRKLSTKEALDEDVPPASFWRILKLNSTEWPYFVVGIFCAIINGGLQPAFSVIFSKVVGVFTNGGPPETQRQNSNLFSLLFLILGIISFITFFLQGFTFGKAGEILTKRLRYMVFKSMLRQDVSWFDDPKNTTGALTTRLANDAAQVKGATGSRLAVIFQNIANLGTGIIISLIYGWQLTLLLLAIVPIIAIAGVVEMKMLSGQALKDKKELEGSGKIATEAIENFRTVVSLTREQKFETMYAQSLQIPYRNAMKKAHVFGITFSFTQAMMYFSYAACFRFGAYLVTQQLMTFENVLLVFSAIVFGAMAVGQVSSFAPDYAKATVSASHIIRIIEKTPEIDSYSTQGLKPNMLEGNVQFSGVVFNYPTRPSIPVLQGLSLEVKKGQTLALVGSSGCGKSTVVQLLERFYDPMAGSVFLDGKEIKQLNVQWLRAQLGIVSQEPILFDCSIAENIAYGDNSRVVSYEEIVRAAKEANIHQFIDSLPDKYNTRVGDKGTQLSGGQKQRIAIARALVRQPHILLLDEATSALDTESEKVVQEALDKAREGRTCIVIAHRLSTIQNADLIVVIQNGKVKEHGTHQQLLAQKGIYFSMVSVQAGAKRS

For `C[C@@H]1NC(=O)c2c[se]c(n2)[C@H](C)NC(=O)c2c[se]c(n2)[C@H](C)NC(=O)c2c[se]c1n2` [QZ-Ala], the IC50 on P-gp [1] is 0.14 µM. A half-maximal response on P-gp [2] (EC50) required 920 nM.

`CC(C)C[C@@H]1NC(=O)c2c[se]c(n2)[C@H](CC(C)C)NC(=O)c2c[se]c(n2)[C@H](CC(C)C)NC(=O)c2c[se]c1n2` [QZ-Leu]: at P-gp [1], the IC50 was 5.4 µM. In the series with CR1R12 cells (CR1R12 cells, higher concentrations), the “Cytotoxicity (in words)” value is on record as “became cytotoxic”.

As to `O=C1N[C@@H](Cc2ccccc2)c2nc(c[se]2)C(=O)N[C@@H](Cc2ccccc2)c2nc(c[se]2)C(=O)N[C@@H](Cc2ccccc2)c2nc1c[se]2` [QZ-Phe], the IC50 at P-gp [1] is 24 µM. For the same compound, the “Full growth inhibition (in words)” value in series [3] is recorded as “not observed”. Moreover, in series [4], the “Solubility (in words)” value is listed as “limited solubility”.

For `CC(C)[C@@H]1NC(=O)c2c[se]c(n2)[C@H](C(C)C)NC(=O)c2c[se]c(n2)[C@H](C(C)C)NC(=O)c2c[se]c1n2` [QZ-Val], at P-gp [1], the IC50 was 1.7 µM.

As to `COc1cc2c(c(OC)c1OC)-c1ccc(OC)c(=O)cc1[C@@H](NC(C)=O)CC2` [colchicine], the GI50 with AUXB1 cells turned out to be 140 nM; with CR1R12 cells (Cricetulus griseus, CR1R12 cells, no cyclopeptide, read-out: 50% growth inhibition (GI50)), 27 µM. For the same compound, the “Resistance of CR1R12 cells relative to AUXB1 cells” value in the series with CR1R12 cells (CR1R12 vs parental AUXB1) was ~ 200 times.
